Data taken from PMC11816618, “Pharmacokinetic profile and in vivo anticancer efficacy of anagrelide administered subcutaneously in rodents” (Drug Delivery, 2025).
Like-named read-outs stand apart in the source and are kept apart here.

Legend:
[1] = PK comparison between three administration routes (IV, PO, SC), plasma LC-MS/MS; format: in vivo, Sprague-Dawley rats; settings: for Vd/F: read-out: Vz/F
Experimental: The rats were purchased from SPF Biotechnology Co. Ltd. (Beijing, China). Animals were acclimated to the test facility for at least three days, during which their general health was checked by veterinary staff or other authorized personnel. Animals were kept in polycarbonate cages containing absorbent corncob bedding, with a maintained temperature range of +20-25 °C and a 12-h light/dark cycle. Animals had access to food and drinking water ad libitum during acclimation and the experiment. At the end of the study, the rats were euthanized by exposure to an increasing concentration of CO2. […] The SC formulation was prepared by dissolving micronized ANA (5 μm particle size) in an oily triglyceride ester of saturated caprylic and capric fatty acids and glycerol (Miglyol® 810 N, IOI Oleo GmbH, Hamburg, Germany). […] To evaluate plasma concentration-time profiles, blood samples were collected from the jugular vein in EDTA tubes and stored at -70 °C until further analysis. […] In the second PK analysis in rats with a longer follow-up time, blood samples were collected at 0, 30 min, 1 […], and 56 d after dosage. SD rat plasma was analyzed for ANA, 3-OH-ANA, and RL603 concentrations by Pharmaron (Beijing, China). ANA, 3-hydroxy-anagrelide (CAS No. 733043-41-9, Cat. No. sc-206647, Santa Cruz Biotechnology, Inc., Dallas, TX), and RL603 (CAS No. 327602-34-6, Cat. No. sc-391661, Santa Cruz Biotechnology, Inc., Dallas, TX) were used as reference items in calibration standards and quality control (QC) samples. The HPLC and the MS/MS (LCMS-8060) instruments were both from SHIMADZU (Kyoto, Japan), and the column used was a Raptor Biphenyl column (2.7 μm, 50 × 2.1 mm, Restek, Bellefonte, PA). The desired serial concentrations of working solutions were achieved by diluting analyte stock solution with 50% acetonitrile in water. […] These QC samples were prepared on the day of analysis in the same way as calibration standards. Carbamazepine (CAS No. 298-46-4, Sigma-Aldrich, St. Louis, MO) was used as an internal standard for all analytes. Altogether, 55 μL of standards, 55 μL of QC samples, and 55 μL of test samples (comprising 50 μL of plasma and 5 μL of blank solution) were added to 200 μL of acetonitrile containing an internal standard mixture to precipitate protein. The samples were then vortexed for 30 seconds. After centrifugation at 4000 × g (+4 °C) for 5 min, the supernatant was diluted threefold with water, and 2 μL of the diluted supernatant was injected into the LC/MS/MS system for quantitative analysis. The transitions were 256.00-198.90 m/z for anagrelide hydrochloride, 272.00-198.95 m/z for 3-hydroxy anagrelide, 216.00-198.95 m/z for RL603, and 237.20-194.10 m/z for carbamazepine. […] Plasma drug concentration-time profiles were drawn by the average plasma concentrations at specific time points using Microsoft Excel (Redmond, WA). […] Certara, Princeton, NJ) software. Averages of each variable were used when PK values were compared.

[2] = Clinical observation during the rat PK experiments; format: in vivo, Sprague-Dawley rats; settings: single dose IV 0.5, PO 2.5, SC 1.0, 7.0 or 35.0 mg/kg, SD rats
Experimental: To compare PK values of the three different administration routes, 11 male Sprague-Dawley® (SD) rats (6–8 weeks old) were administered a single dose of ANA either via IV injection (n = 3, 0.5 mg/kg), PO (n = 3, 2.5 mg/kg), or SC injection (n = 5, 1.0 mg/kg). To monitor the sustained release of SC ANA in the long term, 10 male SD rats were treated with a single dose of either 7.0 mg/kg (n = 5) or 35.0 mg/kg (n = 5). The rats were purchased from SPF Biotechnology Co. Ltd. (Beijing, China). Animals were acclimated to the test facility for at least three days, during which their general health was checked by veterinary staff or other authorized personnel. Animals were kept in polycarbonate cages containing absorbent corncob bedding, with a maintained temperature range of +20–25 °C and a 12-h light/dark cycle. Animals had access to food and drinking water ad libitum during acclimation and the experiment. At the end of the study, the rats were euthanized by exposure to an increasing concentration of CO2.

UZLX-GIST2B = tested on: UZLX-GIST2B; set-up: method as in Pulkka et al., 2019; settings: 5 mg/kg PO BID, in 11 days; ref Pulkka et al., 2019; cited from earlier work
[3] = SC 1.0 mg/kg vs IV 0.5 mg/kg, SD rats
[4] = Sprague-Dawley, rat, plasma, single ANA dose 0.5 mg/kg IV, male SD rats, n = 3, mean ± SD
[5] = Sprague-Dawley, rat, plasma, single ANA dose 1.0 mg/kg SC in miglyol, male SD rats, n = 5, mean ± SD
[6] = Sprague-Dawley, rat, plasma, single ANA dose 2.5 mg/kg PO, male SD rats, n = 3, mean ± SD
[7] = Sprague-Dawley, rat, analyte in plasma after single ANA dose 0.5 mg/kg IV, male SD rats, n = 3, mean ± SD
[8] = Sprague-Dawley, rat, analyte in plasma after single ANA dose 1.0 mg/kg SC in miglyol, male SD rats, n = 5, mean ± SD
[9] = Sprague-Dawley, rat, analyte in plasma after single ANA dose 2.5 mg/kg PO, male SD rats, n = 3, mean ± SD

O=C1CN2Cc3c(ccc(Cl)c3Cl)N=C2N1 [Anagrelide, imidazo‐[2,1‐b] quinazolin‐2[3H]‐one, 6,7‐dichloro‐1,5‐dihydro, monohydro‐chloride]
AUClast lower with SC than with IV [1, 3]: 36%
increase of T1/2 with SC administration compared to IV [1, 3]: 25 fold
MRT inf [1, 4]: 0.51 ± 0.08 h
clearance [1, 4]: 31.9 ± 2.52 mL/min/kg
Vd ([1]; Sprague-Dawley, rat, plasma, single ANA dose 0.5 mg/kg IV, male SD rats, n = 3, mean ± SD, read-out: Vss): 0.97 ± 0.1 L/kg
CL/F [1, 5]: 101 ± 37.4 mL/min/kg
MRT inf [1, 5]: 48.1 ± 22.7 h
bioavailability [1, 5]: 33.5 ± 9.79%
Vd/F [1, 5]: 218 ± 149 L/kg
CL/F [1, 6]: 718 ± 125 mL/min/kg
MRT inf [1, 6]: 6.38 ± 1.33 h
bioavailability [1, 6]: 4.19 ± 0.7%
Vd/F [1, 6]: 634 ± 338 L/kg
AUC(0-inf) [1, 7]: 262 ± 19.9 ng·h/mL
AUC(0-t) [1, 7]: 261 ± 19.8 ng·h/mL
Cmax [1, 7]: 497 ± 17.5 ng/mL
half-life [1, 7]: 1.09 ± 0.22 h
AUC(0-inf) [1, 8]: 187 ± 62 ng·h/mL
AUC(0-t) [1, 8]: 167 ± 57.1 ng·h/mL
Cmax [1, 8]: 12.4 ± 3.14 ng/mL
half-life [1, 8]: 27.3 ± 24.4 h
AUC(0-inf) [1, 9]: 59.3 ± 9.49 ng·h/mL
AUC(0-t) [1, 9]: 51.4 ± 7.09 ng·h/mL
Cmax [1, 9]: 18 ± 2.59 ng/mL
half-life [1, 9]: 10.1 ± 4.93 h
time to compound elimination from plasma ([1]; after IV 0.5 mg/kg, SD rats): ≤ 6 h
decrease of plasma concentrations by the 8-h time point ([1]; after PO 2.5 mg/kg, SD rats): approximately 90%
time point after which plasma concentrations were no longer detectable ([1]; after SC 1.0 mg/kg, SD rats, except a few irregular observations near the quantification limit): 72 h
Tmax ([1]; analyte in plasma after single ANA dose 1.0 mg/kg SC in miglyol, male SD rats, n = 5, mean ± SD, 1 mg/kg): 0.80 ± 0.27 h
Tmax ([1]; male, Sprague-Dawley, rat, plasma, iv, 0.5 mg/kg, analyte in plasma after single ANA dose 0.5 mg/kg IV, male SD rats, n = 3, mean ± SD, read-out: Tmax): 0.083 h
Tmax ([1]; male, Sprague-Dawley, rat, plasma, po, 2.5 mg/kg, analyte in plasma after single ANA dose 2.5 mg/kg PO, male SD rats, n = 3, mean ± SD, read-out: Tmax): 1 h
Tmax ([1]; male, Sprague-Dawley, rat, plasma, sc, 1 mg/kg, analyte in plasma after single ANA dose 1.0 mg/kg SC in miglyol, male SD rats, n = 5, mean ± SD, read-out: Tmax): 1 h
clinical symptoms [2]: No abnormal clinical symptoms were observed
tumor response in the same PDX model (UZLX-GIST2B): significant tumor regression
